The numbers were not newly measured in paper PMC12163019 (Frontiers in Pharmacology, 2025), which cites them from elsewhere.

One may read the half-life as the time in which the quantity being followed falls by half.

Details of the series: method as in Danto et al., 2019a. The settings on record: modified-release formulation; ref Danto et al., 2019a.

As for `CC[C@@H]1[C@H](F)C(=O)N[C@@H]1COc1nccc2cc(C(N)=O)c(OC)cc12` [zimlovisertib], the half-life is 38.8 ± 21.1 h.
